From patent US20070092475A1, “Methods for enhancing the morphology, tone, texture and/or appearance of skin using a Meadowestolide” (priority 2005, published 2007)

How the values were obtained:
[1] = In vitro water binding experiments (water retention by loss on drying); assay type: physicochemical; settings: for water retention (FIG. 1 and FIG. 2), in words: 3 ml substance over 10 ml distilled water, after mixing
Description: It was postulated that, as a result of the structure of the Meadowestolide prepared in Example 1, which has a carboxylic acid function and an ester linkage in juxtaposition to one another, a considerable degree of hydrogen-bonding and consequent water binding should be evident. Consequently, in vitro experiments to test this theory employing the Meadowestolide, as well as the carefully selected comparative control compounds described below, were conducted.
The Meadowestolide prepared in Example 1 (3 ml) and the control substances (3 ml) were carefully layered over distilled water (10 ml) using a long-nosed pipette, hand mixed for 30 seconds and photographed using a Sony Digital DSC-F505V Camera equipped with a Carl Zeiss Vario-Sonner lens. The degree of water retention was then examined by measuring the “loss on drying” (water removed from lipid phase […]). The upper lipid phase was completely removed using a long-nose pipette and analyzed for water content by “loss on drying” using a drying oven at 105 degrees centigrade until there was no longer any change in weight.

[2] = tested on: human skin; experiment: In vivo tissue hydration of the stratum corneum, Dermal Phase Meter 9003; settings: one application neat (100%) to forearm, FIG. 3
Excerpt: (§1) TEWL and tissue hydration (of the stratum comeum) experiments were designed to evaluate the moisture retention properties of the Meadowestolide described in Example 1 in comparison with a relevant oil and a non-polymerized ester. Thus, for these studies, the natural oil to select as a control was Meadowfoam seed oil since it was the precursor oil from which the Meadowestolide was derived. […] Thus, in these experiments, the following substances were compared: (a) Meadowfoam seed oil (triglyceride oil); (b) a long-chain guerbet ester of meadowfoam fatty acid (CH3(CH2)9CH((CH)2O(CO)(CH2)22CH3)((CH2)7CH3); and (c) the Meadowestolide prepared in Example 1.
(§2) These experiments were conducted to assess and compare the moisturizing efficacy of the Meadowestolide and appropriate controls on human skin using a NOVA Technology Corporation (Portsmouth, N.H.) Dermal Phase Meter 9003 (DPM) and a ServoMed Evaporimeter (ServoMed, Sweden). The combined use of these instruments assesses the moisturizing and barrier enhancement properties of topically applied materials. […]
In the tissue hydration experiments, a Dermal Phase Meter 9003 was used to quantify moisture content in the stratum comeum (SC) by an electrical capacitance method. […] The Dermal Phase Meter 9003 numbers are directly related to the electrical capacitance of the skin measured as picoFarads (pF).

[3] = tested on: human skin; experiment: In vivo transepidermal water loss (TEWL), ServoMed Evaporimeter; settings: one application neat (100%) to forearm, about 2 minutes; twenty subjects; FIG. 3
Excerpt: as §1, §2
A ServoMed Evaporimeter was used to measure transepidermal water loss (TEWL). A hand-held probe on this meter samples the relative humidity at two points above the skin surface, thereby allowing the rate of water loss to be calculated from the humidity gradient. Measurements are recorded as g/m2/hr. […]

[4] = Analytical results on purified Meadowestolide (stability); assay type: physicochemical
Excerpt: The purified Meadowestolide was identified and subsequently quantified by infrared spectroscopy and HPLC coupled with an evaporative light-scattering detector.

Row | SMILES | water bound, relative to Jojoba oil ([1]; 3 ml substance layered over 10 ml distilled water, hand mixed 30 seconds, loss on drying of lipid phase at 105 degrees centigrade, vs Jojoba oil) | water bound, relative to Meadowfoam seed oil and meadowfoam fatty acid ([1]; 3 ml substance layered over 10 ml distilled water, hand mixed 30 seconds, loss on drying of lipid phase at 105 degrees centigrade, vs Meadowfoam seed oil and meadowfoam fatty acid) | water retention (FIG. 1 and FIG. 2), in words [1] | tissue hydration, in comparison with Meadowfoam seed oil, in words ([2]; about 2 minutes, twenty subjects) | hydration capability, in comparison with the guerbet ester of meadowfoam fatty acid, in words ([2]; molecular sizes reasonably equivalent) | transepidermal water loss (TEWL), in words [3] | stability [4]
1 | CCCCCCCCCCCCCC/C=C/CCCC(=O)OC(CCCCCCCCCCCCCCC)CCCC(=O)O (centres unmarked) [Meadowestolide] | approximately nine | approximately four | capable of binding water to a significant extent | improved hydration | hydration capability exceeds that of a simple ester | very efficient in preventing water loss | extended stability
2 | CCCCCCCCCCCCCCCCC=CCCCC(=O)O [meadowfoam fatty acid, CH3—(CH2)15—(CH)2—(CH2)3—COOH, reference compound] | – | – | retained a small quantity of water | – | – | – | –
